Experimental data: US11452726B2, “Salts of 2-fluoro-N-methyl-4-[7-(quinolin-6-yl-methyl)-imidazo[1,2-b][1,2,4]triazin-2-yl]benzamide and processes related to preparing the same” (Incyte Corporation, priority 2008, dated 2022)

What was measured:
[1] = physchem; conditions: 25 °C, thermodynamic from solid
Description: (§1) The sample concentration was then determined by HPLC using a single point calibration.

[2] = Equilibrium solubility in aqueous solvents, concentration by HPLC; conditions: 25° C., mixing at least 12 hours, listed as dihydrochloric acid salt, dihydrochloride
Description: as §1

[3] = 0.1 N aqueous HCl, simulated gastric fluid
[4] = pH 7.4 buffer, pH 7.4, aqueous buffer
[5] = pH 8.0 buffer, pH 8, aqueous buffer

solubility [1, 3] [µg/mL]	solubility [1, 4] [µg/mL]	solubility [1, 5] [µg/mL]	solubility ([1]; water) [µg/mL]	solubility in water [2]	SMILES
~24000	2	2	~4900	approximately 4.5 mg/mL	CNC(=O)c1ccc(-c2cnc3ncc(Cc4ccc5ncccc5c4)n3n2)cc1F.Cl.Cl [Compound 21, 2-Fluoro-N-methyl-4-(7-(quinolin-6-ylmethyl)imidazo[1,2-b][1,2,4]triazin-2-yl)benzamide dihydrochloride]
≥ 29000	3	3	~3900		CNC(=O)c1ccc(-c2cnc3ncc(Cc4ccc5ncccc5c4)n3n2)cc1F.O=S(=O)(O)c1ccccc1.O=S(=O)(O)c1ccccc1 [dibenzenesulfonic acid salt, 2-Fluoro-N-methyl-4-[7-(quinolin-6-ylmethyl)imidazolo[1,2-b][1,2,4]triazin-2-yl]benzamide dibenzenesulfonic acid salt]
